In DBAASP:
≈ marks a conversion by molar mass, not a printed value. Where “and” joins values, the source holds several entries; their conditions need not be identical. Identical values can stand only once. Blank lines part the entries; values can stand above or below the compound they belong to.

Columns and labels:
Experiment in all cases: ≥ marks a high value that may be exact or a test limit, other limits are often not marked, values filed in µg/mL are converted to µM
[1] = tested on: Streptococcus pyogenes NZ131
Escherichia coli O29 = tested on: Escherichia coli O29
[2] = tested on: Staphylococcus aureus ATCC 25923
[3] = tested on: Acinetobacter baumannii ATCC 19606
[4] = tested on: Staphylococcus aureus mprF
Acinetobacter baumannii = tested on: Acinetobacter baumannii
[5] = tested on: Candida albicans ATCC 14053
[6] = tested on: Pseudomonas aeruginosa ATCC 27853
[7] = tested on: Enterobacter cloacae ATCC 49141
Escherichia coli D21 = tested on: Escherichia coli D21
[8] = tested on: Aspergillus fumigatus ATCC 26430
[9] = tested on: Enterococcus faecalis ATCC 19433
[10] = tested on: Escherichia coli ATCC 25922
[11] = tested on: Staphylococcus aureus II ATCC 6538P
[12] = tested on: Candida albicans ATCC 10231
[13] = tested on: Salmonella enterica subsp. enterica serovar Typhimurium ATCC 14028
Escherichia coli = tested on: Escherichia coli
[14] = tested on: Enterococcus faecalis ATCC 29212
Bacillus subtilis = tested on: Bacillus subtilis
[15] = tested on: Streptococcus pyogenes ATCC 19615
[16] = tested on: Klebsiella pneumoniae ATCC 13883
[17] = tested on: Neisseria gonorrhoeae ATCC 49226
[18] = tested on: Shigella sonnei ATCC 25931
[19] = tested on: Klebsiella pneumoniae ATCC 700603
Serratia sp. ATCC 39006 = tested on: Serratia sp. ATCC 39006
[20] = tested on: Staphylococcus epidermidis ATCC 12228
[21] = tested on: Staphylococcus saprophyticus ATCC 15305
[22] = tested on: Micrococcus luteus ATCC 49732
[23] = tested on: Streptococcus agalactiae ATCC 12386
[24] = tested on: Proteus vulgaris ATCC 49132
[25] = tested on: Staphylococcus aureus ATCC 43330
[26] = tested on: Pseudomonas aeruginosa LC
[27] = tested on: Pseudomonas aeruginosa ATCC 21630
[28] = tested on: Staphylococcus aureus ATCC 29213
[29] = tested on: Pseudomonas aeruginosa LCGE
[30] = tested on: Pseudomonas aeruginosa LCCE
[31] = tested on: Pseudomonas aeruginosa ATCC 10419
[32] = tested on: Pseudomonas aeruginosa ATCC 21625
[33] = tested on: Salmonella enterica subsp. enterica serovar Typhimurium C77-31
Escherichia coli UB1005 = tested on: Escherichia coli UB1005
[34] = tested on: Pseudomonas aeruginosa LCCI

Compound: CC[C@H](C)[C@H](NC(=O)[C@H](CCCN=C(N)N)NC(=O)[C@H](CCC(N)=O)NC(=O)[C@@H](NC(=O)[C@@H](NC(=O)[C@H](CCCN=C(N)N)NC(=O)[C@@H](N)CCCCN)[C@@H](C)CC)C(C)C)C(=O)N[C@@H](CCCCN)C(=O)N[C@@H](CC(=O)O)C(=O)N[C@@H](Cc1ccccc1)C(=O)N[C@@H](CC(C)C)C(=O)N[C@@H](CCCN=C(N)N)C(=O)N[C@@H](CC(N)=O)C(=O)N[C@@H](CC(C)C)C(=O)N[C@H](C(=O)N1CCC[C@H]1C(=O)N[C@@H](CCCN=C(N)N)C(=O)N[C@H](C(=O)N[C@@H](CCC(=O)O)C(=O)N[C@@H](CO)C(=O)O)[C@@H](C)O)C(C)C [KRIVQRIKDFLRNLVPRTES]
MIC [1]: 4 µM (≈ 9.88 µg/mL) | MIC (Escherichia coli O29): ≥ 64 µM | MIC [2]: > 64 µM | MIC [3]: 25.9 µM (≈ 64 µg/mL) | MIC [4]: 16 µM (≈ 39.5 µg/mL) | MIC (Acinetobacter baumannii): 9.16 µM (≈ 22.6 µg/mL) | MIC [5]: 10 µM (≈ 24.7 µg/mL)

Compound: CC(C)C[C@H](NC(=O)[C@H](Cc1cnc[nH]1)NC(=O)[C@H](CCCCN)NC(=O)[C@H](CC(C)C)NC(=O)[C@H](CC(C)C)NC(=O)[C@H](Cc1cnc[nH]1)NC(=O)[C@H](CCCCN)NC(=O)[C@H](CC(C)C)NC(=O)[C@H](CC(C)C)NC(=O)[C@H](Cc1cnc[nH]1)NC(=O)[C@H](CCCCN)NC(=O)[C@H](CC(C)C)NC(=O)[C@H](C)NC(=O)[C@H](CC(=O)O)NC(=O)[C@@H](N)CC(=O)O)C(=O)O [DDALKHLLKHLLKHL]
MIC [6]: 50 µM (≈ 89.7 µg/mL) | MIC [7]: ≥ 100 µM | MIC (Escherichia coli D21): ≥ 50 µM | MIC [8]: 12.5 µM and 25 µM | MIC [3]: 50 µM (≈ 89.7 µg/mL) | MIC [9]: 25 µM (≈ 44.9 µg/mL) | MIC [10]: 100 µM (≈ 179 µg/mL) | MIC [11]: 25 µM and 22 µM | MIC [12]: 12.5 µM (≈ 22.4 µg/mL)

Compound: CC[C@H](C)[C@H](NC(=O)[C@@H]1CCCN1C(=O)[C@H](CC(C)C)NC(=O)[C@@H](N)CC(C)C)C(=O)N[C@H](C(=O)NCC(=O)N[C@@H](CC(N)=O)C(=O)N[C@@H](CC(C)C)C(=O)N[C@@H](CC(C)C)C(=O)N[C@@H](CCCCN)C(=O)N[C@@H](CO)C(=O)N[C@@H](CC(C)C)C(=O)N[C@@H](CC(C)C)C(=O)NCC(=O)N[C@@H](Cc1c[nH]c2ccccc12)C(=O)N[C@@H](CCCCN)C(=O)N[C@@H](CCCN=C(N)N)C(=O)N[C@@H](CCCCN)C(=O)N[C@@H](C)C(=O)N[C@@H](Cc1ccccc1)C(=O)NCC(N)=O)C(C)C [LLPIVGNLLKSLLGWKRKAFG]
MIC [6]: 200 µM (≈ 465 µg/mL) | MIC [13]: > 200 µM | MIC (Escherichia coli): 100 µM (≈ 232 µg/mL) | MIC [14]: 100 µM (≈ 232 µg/mL) | MIC [2]: 50 µM (≈ 116 µg/mL) | MIC (Bacillus subtilis): ≥ 50 µM | MIC [15]: ≥ 100 µM | MIC [16]: ≥ 200 µM

Second part, the compound after the results:

MIC [13]: 2.25 µM (≈ 7.21 µg/mL) | MIC [17]: 5.2 µM (≈ 16.7 µg/mL) | MIC [18]: 3.9 µM (≈ 12.5 µg/mL) | MIC [19]: 4.55 µM (≈ 14.6 µg/mL) | MIC (Serratia sp. ATCC 39006): 3.9 µM (≈ 12.5 µg/mL) | MIC [20]: 2.92 µM (≈ 9.37 µg/mL) | MIC [14]: 2.25 µM (≈ 7.21 µg/mL) | MIC [2]: 2.25 µM (≈ 7.21 µg/mL) | MIC [21]: 0.976 µM (≈ 3.13 µg/mL) | MIC [22]: 0.814 µM (≈ 2.61 µg/mL) | MIC [10]: 1.62 µM (≈ 5.21 µg/mL) | MIC [23]: 2.6 µM (≈ 8.33 µg/mL) | MIC [24]: 3.25 µM (≈ 10.4 µg/mL) | MIC [25]: 2.6 µM (≈ 8.33 µg/mL)
Compound: CC[C@H](C)[C@H](NC(=O)[C@H](CCCCN)NC(=O)[C@H](CCCN=C(N)N)NC(=O)[C@H](CC(C)C)NC(=O)[C@H](Cc1ccccc1)NC(=O)[C@H](CCCN=C(N)N)NC(=O)CNC(=O)[C@H](Cc1ccccc1)NC(=O)[C@@H](N)CCCN=C(N)N)C(=O)N[C@@H](CCCN=C(N)N)C(=O)N[C@@H](CCCN=C(N)N)C(=O)N[C@@H](Cc1ccccc1)C(=O)N[C@@H](CCCN=C(N)N)C(=O)N1CCC[C@H]1C(=O)N[C@@H](CCCCN)C(=O)N[C@H](C(=O)N[C@H](C(=O)N[C@H](C(=O)N[C@H](C(=O)N[C@H](C(=O)N[C@@H](CCC(N)=O)C(=O)NCC(=O)N[C@@H](CO)C(=O)N[C@@H](C)C(=O)N[C@@H](CCCN=C(N)N)C(=O)N[C@@H](Cc1ccccc1)C(N)=O)[C@@H](C)CC)[C@@H](C)O)[C@@H](C)CC)[C@@H](C)O)C(C)C [RFGRFLRKIRRFRPKVTITIQGSARF]

MIC [6]: 256 µM (≈ 559 µg/mL) | MIC [26]: ≥ 32 µM | MIC [27]: ≥ 256 µM | MIC [28]: 128 µM (≈ 279 µg/mL) | MIC [20]: 32 µM (≈ 69.8 µg/mL) | MIC [14]: 128 µM (≈ 279 µg/mL) | MIC [29]: ≥ 256 µM | MIC [30]: ≥ 256 µM | MIC [31]: ≥ 256 µM | MIC [32]: ≥ 256 µM | MIC [10]: 128 µM (≈ 279 µg/mL) | MIC [33]: ≥ 128 µM | MIC (Escherichia coli UB1005): ≥ 128 µM | MIC [34]: ≥ 256 µM
Compound: CC[C@H](C)[C@H](NC(=O)[C@H](CCCCN)NC(=O)[C@H](CCCCN)NC(=O)[C@H](CC(C)C)NC(=O)[C@H](CCCN=C(N)N)NC(=O)[C@H](CCCCN)NC(=O)[C@H](CCCN=C(N)N)NC(=O)[C@@H](NC(=O)[C@H](CCCCN)NC(=O)[C@H](CCCCN)NC(=O)[C@H](CCCN=C(N)N)NC(=O)[C@H](CC(C)C)NC(=O)[C@H](CCCN=C(N)N)NC(=O)[C@H](CCCN=C(N)N)NC(=O)[C@H](Cc1ccccc1)NC(=O)[C@@H](N)CCCN=C(N)N)[C@@H](C)O)C(N)=O [RFRRLRKKTRKRLKKI]
